Reference: patent US20220233661A1, “METHOD OF DETERMINING ELIGIBILITY OF CANCER PATIENT FOR PEPTIDE VACCINE THERAPY” (priority 2019, published 2022)

What was measured:
[1] = test system: anti-peptide IgG in plasma; experiment: Test Example 4: peptide-specific IgG titer pre and post vaccination, bead-based multiplexed Luminex assay; type: in vivo, human; conditions: for Pre-vaccination IgG Negative (number of patients) / Pre-vaccination IgG Positive (number of patients): cut off 10 FIU; for Post vaccination IgG: number of (positive) patients among vaccinated: positive IgG response; for Pre-vaccination IgG Negative patients: number of 2,588 patients below 10 FIU; for Pre-vaccination IgG Positive patients: number of 2,588 patients with ≥10 FIU; for Post vaccination IgG: (positive) patients: number of vaccinated patients with positive IgG response; for Correlation between immune responses and OS: Negative (mOS): patients with negative post-vaccination IgG response to the peptide; for Correlation between immune responses and OS: Positive (mOS): patients with positive post-vaccination IgG response to the peptide
Procedure: As described previously, IgG titer specific to the antigen peptides in plasma was measured by bead-based multiplexed Luminex assay (Luminex, Austin, Tex.) before and after vaccination, i.e., at the end of each cycle or at the end of the clinical trial (Non-Patent Literature 4). In brief, 30 mL of peripheral blood was obtained before and after vaccination. Plasma was incubated with 100 μL of peptide-coupled color-coded beads for 2 hours at 25° C. on a plate shaker. After the incubation, the resultant mixture was washed with a vacuum manifold apparatus and incubated with 100 μL of biotinylated goat anti-human IgG (gamma chain-specific; Vector Laboratories, Burlingame, Calif.) for 1 hour at 25° C. on a plate shaker. The plate was then washed, followed by addition of 100 μL of streptavidin-PE (Life Technologies) to each well, and incubation for 30 minutes at 25° C. on a plate shaker. The resultant beads were washed 4 times, followed by addition of 100 μL of Tween-PBS to each well, and detection of fluorescence intensity units (FIU) on the beads using the Luminex system. The cutoff values of anti-peptide IgG were set to 10 FIU in 100-fold diluted samples.
Pre-vaccination peptide-specific IgG titers to 31 peptides were measured using a Luminex system. As a detectable IgG level, 10 FIU was employed as the cut off level, as reported previously (Noguchi M, et al., Cancer Immunol Immunother. 2013 May; 62(5): 919-29; Sasada T, et al., Current Medicinal Chemistry. 21: 2332-2345, 2014; Kibe S, et al., Cancer Immunology Research 2014; 2(12): 1154-62).
Post-vaccination lgG titers were measured at the ends of the first cycle and the second cycle.

[2] = test system: cancer patients; experiment: Test Example 4: correlation between vaccination with individual peptides (or peptide sets) and OS, Cox proportional hazards regression; type: in vivo, human; conditions: for HR: Cox proportional hazards regression, OS; for Correlation between immune responses and OS: Negative (mOS) / Correlation between immune responses and OS: Positive (mOS): Table 20, <64% neutrophil and ≥26% lymphocyte; for Correlation between immune responses and OS: Negative (mOS): vaccinated patients with negative IgG response; for Correlation between immune responses and OS: Positive (mOS): vaccinated patients with positive IgG response
Procedure: The Student's t-test and the chi-square test were used to compare quantitative and categorical variables, respectively. OS was calculated as the time in months from the date of clinical trial enrollment to death or to the date of last contact. Time-to-event endpoints were analyzed using the Kaplan-Meier method, and between-group comparison for OS was conducted using the log-rank test. Clinical efficacy of the individual peptides for OS was evaluated by univariate and multivariate analyses with the Cox proportional hazards regression model, and HR and 95% CI were calculated. All reported p-values were two-sided, and p-values less than 0.05 were considered significant. JMP version 12 or SAS version 9.4 software (SAS Institute Inc., Cary, N.C.) was used to perform all analyses.
Correlation levels of the 31 peptides for OS were evaluated by the Cox proportional hazards regression model.
Similarly, in the 2,085 advanced cancer patients (stage IV+recurrence) and the 503 non-advanced cancer patients (I-III stages) correlation levels of the 31 peptides for OS were evaluated by the Cox proportional hazards regression model. […]

[3] = Table 20, patients showing both <64% neutrophil and ≥26% lymphocyte
[4] = patients showing detectable levels
[5] = patients showing positive responses
[6] = Table 18, all 2,588 cases, vaccinated vs non-vaccinated
[7] = Table 18, all 2,588 cases, median OS of patients under PPV containing the peptide
[8] = Table 18, all 2,588 cases, median OS of patients under PPV not containing the peptide
[9] = Table 19, 2,085 advanced cancer patients (stage IV+recurrence)
[10] = Table 19, 2,085 advanced cancer patients (stage IV+recurrence), PPV containing the peptide
[11] = Table 19, 2,085 advanced cancer patients (stage IV+recurrence), PPV not containing the peptide
[12] = Table 21, patients showing both <64% neutrophil and ≥26% lymphocyte
[13] = Table 21, patients showing both <64% neutrophil and ≥26% lymphocyte, PPV containing the peptide
[14] = Table 21, patients showing both <64% neutrophil and ≥26% lymphocyte, PPV not containing the peptide

HYRKWIKDTI (listed as Homo sapiens) [PSA-248]
Post vaccination IgG Median (FIU) [1, 3]: 18,191 FIU
Pre-vaccination IgG Median (FIU) [1, 3]: 47 FIU
Pre-vaccination IgG Negative (number of patients) [1, 3]: 231
Pre-vaccination IgG Positive (number of patients) [1, 3]: 835
Post vaccination IgG: number of (positive) patients among vaccinated [1, 3]: 107(81)
Pre-vaccination IgG Negative patients [1]: 553
Pre-vaccination IgG Positive patients [1]: 2,035
Post vaccination IgG: (positive) patients [1]: 283(200)
Pre-vaccination IgG Median (FIU) [1, 4]: 48 FIU
Post vaccination IgG Median (FIU) [1, 5]: 13,165 FIU
Correlation between immune responses and OS: Negative (mOS) [1]: 7.0 months
Correlation between immune responses and OS: Positive (mOS) [1]: 20.2 months
HR [2, 6]: 0.9
Vaccinate cases (mOS) [2, 7]: 283(13.8) M
Non-vaccinate cases (mOS) [2, 8]: 1,267(11.6) M
HR [2, 9]: 0.9
Vaccinate cases (mOS) [2, 10]: 230(13.0) M
Non-vaccinate cases (mOS) [2, 11]: 1016(10.2) M
Correlation between immune responses and OS: Negative (mOS) [2]: 9.6 months
Correlation between immune responses and OS: Positive (mOS) [2]: 27.4 months
HR [2, 12]: 0.9
Vaccinate cases (mOS) [2, 13]: 107(20.4) M
Non-vaccinate cases (mOS) [2, 14]: 518(17.9) M

ILEQSGEWWK (listed as Homo sapiens) [Lck-90]
Post vaccination IgG Median (FIU) [1, 3]: 4,250 FIU
Pre-vaccination IgG Median (FIU) [1, 3]: 43 FIU
Pre-vaccination IgG Negative (number of patients) [1, 3]: 215
Pre-vaccination IgG Positive (number of patients) [1, 3]: 851
Post vaccination IgG: number of (positive) patients among vaccinated [1, 3]: 210(100)
Pre-vaccination IgG Negative patients [1]: 501
Pre-vaccination IgG Positive patients [1]: 2,087
Post vaccination IgG: (positive) patients [1]: 502(187)
Pre-vaccination IgG Median (FIU) [1, 4]: 44 FIU
Post vaccination IgG Median (FIU) [1, 5]: 3,350 FIU
Correlation between immune responses and OS: Negative (mOS) [1]: 10.3 months
Correlation between immune responses and OS: Positive (mOS) [1]: 20.9 months
HR [2, 6]: 1.0
Vaccinate cases (mOS) [2, 7]: 502(11.3) M
Non-vaccinate cases (mOS) [2, 8]: 712(11.0) M
HR [2, 9]: 1.0
Vaccinate cases (mOS) [2, 10]: 391(10.3) M
Non-vaccinate cases (mOS) [2, 11]: 578(9.4) M
Correlation between immune responses and OS: Negative (mOS) [2]: 12 months
Correlation between immune responses and OS: Positive (mOS) [2]: 26.3 months
HR [2, 12]: 1.0
Vaccinate cases (mOS) [2, 13]: 210(17.8) M
Non-vaccinate cases (mOS) [2, 14]: 297(17.5) M

KYVGIEREM (listed as Homo sapiens) [EZH2-735]
Post vaccination IgG Median (FIU) [1, 3]: 20,673 FIU
Pre-vaccination IgG Median (FIU) [1, 3]: 23 FIU
Pre-vaccination IgG Negative (number of patients) [1, 3]: 837
Pre-vaccination IgG Positive (number of patients) [1, 3]: 229
Post vaccination IgG: number of (positive) patients among vaccinated [1, 3]: 31(25)
Pre-vaccination IgG Negative patients [1]: 2,030
Pre-vaccination IgG Positive patients [1]: 558
Post vaccination IgG: (positive) patients [1]: 69(51)
Pre-vaccination IgG Median (FIU) [1, 4]: 23 FIU
Post vaccination IgG Median (FIU) [1, 5]: 17,691 FIU
positive immune responses post-vaccination (positive of vaccinated cases) ([1]; patients who completed at least the first cycle): 51 of 69
Correlation between immune responses and OS: Negative (mOS) [1]: 5.3 months
Correlation between immune responses and OS: Positive (mOS) [1]: 24.7 months
HR [2, 6]: 0.9
Vaccinate cases (mOS) [2, 7]: 69(13.3) M
Non-vaccinate cases (mOS) [2, 8]: 1,481(11.9) M
HR [2, 9]: 0.9
Vaccinate cases (mOS) [2, 10]: 53(11.9) M
Non-vaccinate cases (mOS) [2, 11]: 1193(10.4) M
Correlation between immune responses and OS: Negative (mOS) [2]: 6.7 months
Correlation between immune responses and OS: Positive (mOS) [2]: 26.7 months
HR [2, 12]: 0.7
Vaccinate cases (mOS) [2, 13]: 31(26.5) M
Non-vaccinate cases (mOS) [2, 14]: 594(18.0) M
